Source: patent US20240327364A1, “THERAPEUTIC TARGETING OF GPR68 TO INDUCE FERROPTOSIS” (University Of Maryland, Baltimore, priority 2023, published 2024)
Read-outs that look alike come from different tables or passages of the source.

Columns and labels:
GRK4 = target: T1, GRK4 (Homo sapiens, UniProt P32298); experiment: KinomeScan; type: binding; conditions: read-out: % Control
T1 construct: purchased DiscoveRx (Fremont, CA)

P2Y4 = target: T2, P2Y4 (Homo sapiens, UniProt P51582); experiment: GPCR Profiler; type: cell-based
T2 construct: host or cells: Chem-1 cells with Gα15
T2 sequence (P51582 whole entry, species assumed): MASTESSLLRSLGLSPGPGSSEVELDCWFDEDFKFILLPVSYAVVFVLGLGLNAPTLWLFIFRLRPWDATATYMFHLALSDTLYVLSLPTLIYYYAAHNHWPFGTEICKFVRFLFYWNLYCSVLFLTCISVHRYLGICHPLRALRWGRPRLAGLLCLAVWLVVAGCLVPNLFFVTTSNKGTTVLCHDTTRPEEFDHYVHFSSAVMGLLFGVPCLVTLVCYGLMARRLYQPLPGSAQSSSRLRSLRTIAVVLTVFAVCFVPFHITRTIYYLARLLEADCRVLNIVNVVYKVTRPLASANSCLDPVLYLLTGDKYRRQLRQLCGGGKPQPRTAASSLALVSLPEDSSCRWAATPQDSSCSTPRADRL

MEK6 = target: T3, MEK6 (Homo sapiens, UniProt P52564); experiment: KinomeScan; type: binding; conditions: read-out: % Control
T3 construct: purchased DiscoveRx (Fremont, CA)
T3 sequence (P52564 whole entry): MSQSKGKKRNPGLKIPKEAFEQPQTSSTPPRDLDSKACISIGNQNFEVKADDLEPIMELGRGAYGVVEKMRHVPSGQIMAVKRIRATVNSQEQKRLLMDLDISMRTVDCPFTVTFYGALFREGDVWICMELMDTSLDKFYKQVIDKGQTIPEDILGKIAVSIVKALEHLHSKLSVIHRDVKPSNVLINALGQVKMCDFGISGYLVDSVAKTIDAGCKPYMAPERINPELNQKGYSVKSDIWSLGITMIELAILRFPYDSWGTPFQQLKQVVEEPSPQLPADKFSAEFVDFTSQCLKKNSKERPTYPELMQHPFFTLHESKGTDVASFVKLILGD

FLT3(ITD) = experiment: KinomeScan; type: binding; conditions: 10 uM
CSNK2A1 = CSNK2A1 (Homo sapiens, UniProt P68400); experiment: KinomeScan; type: binding; conditions: read-out: % Control
[1] = target: T4, ABL1(Q252H)-phosphorylated (Homo sapiens, UniProt P00519, Q252H); experiment: KinomeScan; type: binding; conditions: read-out: % Control
T4 construct: purchased DiscoveRx

TIE1 = target: T5, TIE1 (Homo sapiens, UniProt P35590); experiment: KinomeScan; type: binding; conditions: read-out: % Control
T5 construct: purchased DiscoveRx (Fremont, CA)

PRKD2 = target: T6, PRKD2 (Homo sapiens, UniProt Q9BZL6); experiment: KinomeScan; type: binding; conditions: read-out: % Control
T6 construct: purchased DiscoveRx (Fremont, CA)

GRK1 = target: T7, GRK1 (Homo sapiens, UniProt Q15835); experiment: KinomeScan; type: binding; conditions: read-out: % Control
T7 construct: purchased DiscoveRx (Fremont, CA)

BRK = target: T8, BRK (Homo sapiens, UniProt Q13882); experiment: KinomeScan; type: binding; conditions: read-out: % Control
T8 construct: purchased DiscoveRx (Fremont, CA)

GPR41 = target: T9, GPR41 (Homo sapiens, UniProt O14843); experiment: GPCR Profiler; type: cell-based
T9 construct: host or cells: Chem-1 cells with promiscuous Gα15
T9 sequence (O14843 whole entry, species assumed): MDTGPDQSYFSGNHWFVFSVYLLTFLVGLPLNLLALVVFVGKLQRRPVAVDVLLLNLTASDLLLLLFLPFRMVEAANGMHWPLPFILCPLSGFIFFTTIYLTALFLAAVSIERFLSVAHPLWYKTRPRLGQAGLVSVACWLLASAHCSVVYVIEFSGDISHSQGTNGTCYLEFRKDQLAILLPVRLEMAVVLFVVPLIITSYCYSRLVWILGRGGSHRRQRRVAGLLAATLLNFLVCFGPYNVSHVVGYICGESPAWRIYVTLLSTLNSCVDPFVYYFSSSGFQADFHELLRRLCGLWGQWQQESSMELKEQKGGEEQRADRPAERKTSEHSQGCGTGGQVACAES

LYN = target: T10, LYN (Homo sapiens, UniProt P07948); experiment: KinomeScan; type: binding; conditions: read-out: % Control
T10 construct: purchased DiscoveRx
T10 sequence (P07948 whole entry): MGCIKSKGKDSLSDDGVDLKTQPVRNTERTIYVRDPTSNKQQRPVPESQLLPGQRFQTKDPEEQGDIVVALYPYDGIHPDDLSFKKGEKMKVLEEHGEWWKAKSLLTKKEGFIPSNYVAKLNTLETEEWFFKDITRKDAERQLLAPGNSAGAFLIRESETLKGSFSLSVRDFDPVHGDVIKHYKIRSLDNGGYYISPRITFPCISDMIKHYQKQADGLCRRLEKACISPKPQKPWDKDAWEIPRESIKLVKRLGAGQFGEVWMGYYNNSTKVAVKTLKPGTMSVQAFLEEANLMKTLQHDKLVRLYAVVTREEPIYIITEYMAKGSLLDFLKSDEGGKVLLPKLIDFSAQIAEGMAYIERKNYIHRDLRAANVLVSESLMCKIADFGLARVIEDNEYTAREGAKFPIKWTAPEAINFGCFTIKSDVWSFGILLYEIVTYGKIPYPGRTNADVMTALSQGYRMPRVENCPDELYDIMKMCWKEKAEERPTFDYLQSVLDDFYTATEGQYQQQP

panel of 442 kinases = experiment: KinomeScan panel (summary); type: binding; conditions: 10 uM
[2] = target: T11, RSK3(Kin.Dom.1-N-terminal) (Homo sapiens, UniProt Q15349); experiment: KinomeScan; type: binding; conditions: read-out: % Control
T11 construct: RSK3(Kin.Dom.1-N-terminal); purchased DiscoveRx (Fremont, CA)

FPR2 = target: T12, FPR2 (Homo sapiens, UniProt P25090); experiment: GPCR Profiler; type: cell-based
T12 construct: host or cells: Chem-1 cells expressing Gα15
T12 sequence (P25090 whole entry): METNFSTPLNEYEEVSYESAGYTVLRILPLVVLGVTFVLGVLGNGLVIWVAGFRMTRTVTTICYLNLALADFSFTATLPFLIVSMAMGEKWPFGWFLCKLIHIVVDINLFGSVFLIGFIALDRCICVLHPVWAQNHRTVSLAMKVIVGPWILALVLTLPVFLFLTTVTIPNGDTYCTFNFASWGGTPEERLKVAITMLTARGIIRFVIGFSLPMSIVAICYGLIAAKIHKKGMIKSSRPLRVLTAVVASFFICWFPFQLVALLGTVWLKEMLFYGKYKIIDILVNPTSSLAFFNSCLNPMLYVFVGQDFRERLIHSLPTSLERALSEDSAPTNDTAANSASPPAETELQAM

EIF2AK1 = target: T13, EIF2AK1 (Homo sapiens, UniProt Q9BQI3); experiment: KinomeScan; type: binding; conditions: read-out: % Control
T13 construct: purchased DiscoveRx (Fremont, CA)

MRCKA = target: T14, MRCKA (Homo sapiens, UniProt Q5VT25); experiment: KinomeScan; type: binding; conditions: read-out: % Control
T14 construct: purchased DiscoveRx
T14 sequence (Q5VT25 whole entry): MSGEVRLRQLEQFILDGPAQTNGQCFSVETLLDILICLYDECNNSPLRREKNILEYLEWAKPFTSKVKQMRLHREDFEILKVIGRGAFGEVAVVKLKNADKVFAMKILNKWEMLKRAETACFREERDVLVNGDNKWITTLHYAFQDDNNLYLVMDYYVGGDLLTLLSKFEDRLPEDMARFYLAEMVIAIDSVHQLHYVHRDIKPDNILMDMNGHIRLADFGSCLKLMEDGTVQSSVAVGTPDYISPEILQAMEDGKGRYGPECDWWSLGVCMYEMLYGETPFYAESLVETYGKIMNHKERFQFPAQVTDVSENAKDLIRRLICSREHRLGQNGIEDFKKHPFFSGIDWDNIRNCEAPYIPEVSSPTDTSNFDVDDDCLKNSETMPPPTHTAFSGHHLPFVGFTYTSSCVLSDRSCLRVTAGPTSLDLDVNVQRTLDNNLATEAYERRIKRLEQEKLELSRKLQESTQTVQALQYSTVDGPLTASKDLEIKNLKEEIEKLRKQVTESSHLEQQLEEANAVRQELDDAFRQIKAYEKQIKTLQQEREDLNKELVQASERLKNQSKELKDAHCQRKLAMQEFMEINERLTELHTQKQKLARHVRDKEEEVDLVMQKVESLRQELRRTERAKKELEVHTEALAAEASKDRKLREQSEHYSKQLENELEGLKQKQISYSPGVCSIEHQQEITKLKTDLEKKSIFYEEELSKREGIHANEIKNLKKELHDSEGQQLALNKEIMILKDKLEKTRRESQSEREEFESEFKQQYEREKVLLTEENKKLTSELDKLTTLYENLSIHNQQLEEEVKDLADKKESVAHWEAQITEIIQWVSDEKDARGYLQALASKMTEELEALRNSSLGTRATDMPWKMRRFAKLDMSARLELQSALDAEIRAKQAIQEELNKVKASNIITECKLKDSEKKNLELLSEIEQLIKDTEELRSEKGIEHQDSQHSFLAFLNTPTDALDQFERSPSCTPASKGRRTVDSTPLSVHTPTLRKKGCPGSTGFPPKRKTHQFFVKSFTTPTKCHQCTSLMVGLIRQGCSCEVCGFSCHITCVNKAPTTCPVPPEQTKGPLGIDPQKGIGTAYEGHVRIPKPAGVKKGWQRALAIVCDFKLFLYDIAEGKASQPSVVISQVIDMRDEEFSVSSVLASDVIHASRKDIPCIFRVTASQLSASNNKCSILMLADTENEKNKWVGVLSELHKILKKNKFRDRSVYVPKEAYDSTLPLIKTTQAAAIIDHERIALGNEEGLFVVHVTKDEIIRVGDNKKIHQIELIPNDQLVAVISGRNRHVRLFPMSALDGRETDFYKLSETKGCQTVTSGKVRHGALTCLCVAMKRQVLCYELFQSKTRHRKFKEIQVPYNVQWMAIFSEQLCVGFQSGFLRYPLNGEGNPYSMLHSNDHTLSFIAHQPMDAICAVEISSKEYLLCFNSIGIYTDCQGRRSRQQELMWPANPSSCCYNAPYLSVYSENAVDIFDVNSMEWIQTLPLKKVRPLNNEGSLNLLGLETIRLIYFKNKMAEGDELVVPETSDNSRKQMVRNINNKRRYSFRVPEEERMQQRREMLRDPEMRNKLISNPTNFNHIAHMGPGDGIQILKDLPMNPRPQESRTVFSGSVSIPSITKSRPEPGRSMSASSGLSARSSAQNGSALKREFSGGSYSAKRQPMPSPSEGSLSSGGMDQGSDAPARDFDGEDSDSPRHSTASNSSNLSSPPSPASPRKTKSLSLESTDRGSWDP

p38-delta = target: T15, p38-delta (Homo sapiens, UniProt O15264); experiment: KinomeScan; type: binding; conditions: read-out: % Control
T15 construct: purchased DiscoveRx

MKK7 = target: T16, MKK7 (Homo sapiens, UniProt O14733); experiment: KinomeScan; type: binding; conditions: read-out: % Control
T16 construct: purchased DiscoveRx

VEGFR2 = target: T17, VEGFR2 (Homo sapiens, UniProt P35968); experiment: KinomeScan; type: binding; conditions: read-out: % Control
T17 construct: purchased DiscoveRx
T17 sequence (P35968 20-1356): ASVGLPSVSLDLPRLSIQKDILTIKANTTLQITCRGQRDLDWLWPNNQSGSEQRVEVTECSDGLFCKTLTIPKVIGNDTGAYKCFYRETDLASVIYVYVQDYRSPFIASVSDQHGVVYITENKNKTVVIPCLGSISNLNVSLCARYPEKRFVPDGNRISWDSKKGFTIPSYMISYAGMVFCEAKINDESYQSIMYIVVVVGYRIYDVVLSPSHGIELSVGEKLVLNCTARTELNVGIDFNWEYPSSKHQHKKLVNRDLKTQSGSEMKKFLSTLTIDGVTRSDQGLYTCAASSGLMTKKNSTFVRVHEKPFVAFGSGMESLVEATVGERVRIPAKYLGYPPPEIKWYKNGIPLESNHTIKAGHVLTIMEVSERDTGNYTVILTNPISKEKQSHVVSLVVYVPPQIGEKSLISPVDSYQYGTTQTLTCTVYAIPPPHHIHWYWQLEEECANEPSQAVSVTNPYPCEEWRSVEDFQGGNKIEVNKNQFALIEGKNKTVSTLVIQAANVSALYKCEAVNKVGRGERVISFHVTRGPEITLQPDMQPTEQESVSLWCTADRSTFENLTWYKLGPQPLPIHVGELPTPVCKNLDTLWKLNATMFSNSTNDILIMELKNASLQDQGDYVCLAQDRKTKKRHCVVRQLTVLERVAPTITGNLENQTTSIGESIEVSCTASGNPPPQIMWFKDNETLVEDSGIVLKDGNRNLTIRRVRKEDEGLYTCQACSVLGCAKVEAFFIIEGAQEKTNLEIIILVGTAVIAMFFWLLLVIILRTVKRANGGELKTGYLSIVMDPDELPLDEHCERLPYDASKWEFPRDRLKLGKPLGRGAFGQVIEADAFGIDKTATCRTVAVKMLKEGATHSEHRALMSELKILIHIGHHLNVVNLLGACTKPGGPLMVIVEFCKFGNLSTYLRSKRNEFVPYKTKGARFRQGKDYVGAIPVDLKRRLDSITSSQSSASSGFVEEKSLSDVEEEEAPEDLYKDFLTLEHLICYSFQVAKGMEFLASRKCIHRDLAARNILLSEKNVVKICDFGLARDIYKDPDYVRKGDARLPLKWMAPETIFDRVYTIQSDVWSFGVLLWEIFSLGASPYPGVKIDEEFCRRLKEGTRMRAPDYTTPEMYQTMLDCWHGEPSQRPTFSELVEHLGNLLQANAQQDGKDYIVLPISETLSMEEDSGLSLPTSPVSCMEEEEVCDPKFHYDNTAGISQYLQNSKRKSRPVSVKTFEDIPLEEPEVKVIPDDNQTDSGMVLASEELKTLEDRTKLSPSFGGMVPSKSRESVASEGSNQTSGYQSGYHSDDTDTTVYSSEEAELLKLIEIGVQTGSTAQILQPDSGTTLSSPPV

PIK3CG = target: T18, PIK3CG (Homo sapiens, UniProt P48736); experiment: KinomeScan; type: binding; conditions: read-out: % Control
T18 construct: purchased DiscoveRx (Fremont, CA)

RIPK5 = target: T19, RIPK5 (Homo sapiens, UniProt Q6XUX3); experiment: KinomeScan; type: binding; conditions: read-out: % Control
T19 construct: purchased DiscoveRx (Fremont, CA)

NCI-H82 = experiment: Cell Titer-Glo viability, Lung cancer, small cell; type: cell-based
Protocol: (§1) OGM2 kills wide variety of cancer cell types. Cell sensitivity can be classified in to Very Sensitive (LC50<2 μM), Sensitive (LC50=2 to 10 μM), Mildly Sensitive (LC50>10 μM), and Refractory (no killing at 10 μM). The listed established cell were incubated with OGM2 at 2 μM or 10 μM for 72 hours under standard cell culture conditions, and relative cell number was assessed using Cell Titer-Glo Luminescent Cell Viability Assay (Promega™) following the manufacturer's instructions. Luminescence was determined using a Cytation 5 reader and Gen5 software package (BioTek™).
(§2) Cancer cells, which are very sensitive to killing by OGM2 (LCs <2 μM), with reported mRNA expression of GPR68 and the related proton sensing receptor GPR4. LC50's (concentrations causing 50% lethality) were determined using CellTiter-Glo (Promega™, G7570). Cells were plated in 12-well plates (CELLTREAT Scientific Products, 229112) in 1 ml of DMEM with high glucose, GlutaMAX, HEPES, or RPMI 1640 with Penicillin-Streptomycin (ThermoFisher™, 10564029, 11875119 and 15140122) and 10% FBS. Cells were incubated overnight at 37° C. in 5% CO2. Then 1 mL of fresh media was added with DMSO, OGM, or positive control (Erastin; APExBIO Technology, LLC, B1524) and cells incubated for 3 days. On the third day, all media was removed, cells were rinsed with 1×PBS, PBS was removed, and 200 μL of 1× Passive Lysis Buffer (Promega™, E1941) was added to each well. […]. Subsequently, 20 μL of lysate was added to 100 μL CellTiter-Glo™ reagent on a LUMITRAC 200 plate (Greiner™ bio-one, 82050-726). Plates were briefly spun down and read on a GloMax-Multi Detection System (Promega™).
(§3) The cells listed in the tables above were incubated with OGM2 at 2 μM or 10 μM for 72 hours under standard cell culture conditions, and relative cell number was assessed using Cell Titer-Glo Luminescent Cell Viability Assay (Promega™) following the manufacturer's instructions. Luminescence was determined using a Cytation 5 reader and Gen5 software package (BioTek™). RNA expression of GPR68 and GPR4 in the corresponding cancer cell lines are listed, according to the publicly available The Human Protein Atlas version 22.0 and Ensembl version 103.38 (see proteinatlas.org). The consensus normalized expression value (“nTPM”=normalize transcript per million) was calculated as the maximum nTPM value for each gene in the two data sources.

Hep G2 = experiment: Cell Titer-Glo viability, Hepatocellular cancer; type: cell-based
Protocol: as §1, §2, §3

Compound `CCc1ccc2c(c1)C1(NN=C(c3cccc4ccccc34)S1)C(=O)N2` (stereo not shown) [OGM1, 5-ethyl-5′-naphthalen-1-ylspiro[1H-indole-3,2′-3H-1,3,4-thiadiazole]-2-one] has a remaining binding at 10 µM (GRK4) of 96%, an Antagonism (P2Y4; 10 uM) of 5.4 and an Agonism (P2Y4; 12.5 uM) of −0.8. For the same compound, the remaining binding at 10 µM (MEK6) was 76%, the “% Control” value (FLT3(ITD)) was 100% and the remaining binding at 10 µM (CSNK2A1) was 96%. The remaining binding at 10 µM [1] was 94%, the remaining binding at 10 µM (TIE1) was 94% and the remaining binding at 10 µM (PRKD2) was 87%. The remaining binding at 10 µM (GRK1) was 100%, the remaining binding at 10 µM (BRK) was 100% and the Antagonism (GPR41; 10 uM) was 1.9. The Agonism (GPR41; 12.5 uM) was 0.4, the remaining binding at 10 µM (LYN) was 100% and the “interaction with kinase domains” value (panel of 442 kinases) was “did not physically interact with the kinase domain of any kinase”. It also gave a remaining binding at 10 µM [2] of 100%, an Antagonism (FPR2; 10 uM) of 23 and an Agonism (FPR2; 12.5 uM) of −0.4. The remaining binding at 10 µM (EIF2AK1) was 100%, the remaining binding at 10 µM (MRCKA) was 78% and the remaining binding at 10 µM (p38-delta) was 81%. For the same compound, the remaining binding at 10 µM (MKK7) was 99%, the remaining binding at 10 µM (VEGFR2) was 100% and the remaining binding at 10 µM (PIK3CG) was 100%. The remaining binding at 10 µM (RIPK5) was 56%.

In the case of `CCc1ccc2c(c1)C1(NN=C(c3ccccc3)S1)C(=O)N2` (stereo not shown) [OGM2], the Class (NCI-H82) is reported as “Mildly”, the “% Survival 2 μM OGM” value (NCI-H82; 72 hours) is reported as 102.6% and the “% Survival 10 μM OGM” value (NCI-H82; 72 hours) is reported as 59.9%. The CC50 (NCI-H82; Homo sapiens, NCI-H82, 72 hours, read-out: LC50 (the source's name)) was > 10 µM, the Class (NCI-H82; Table 13) was “Low” and the Class (Hep G2) was “Sensitive (Sensitive (LC50=2 to 10 μM))”. The “% Survival 2 μM OGM” value (Hep G2; 72 hours) was 66.8%, the “% Survival 10 μM OGM” value (Hep G2; 72 hours) was 45.7% and the CC50 (Hep G2; Homo sapiens, HepG2, 72 hours, read-out: LC50 (the source's name)) was 2 to 10 µM.
